{"source": "patent US20060040255A1", "about": "“Cell line designated KT-1 established from tongue epithelial and use thereof” (National Food Research Institute, priority 2003, published 2006)", "key": {"salt taste channel αENaC": {"system": "salt taste channel αENaC", "test": "Hormone regulation of αENaC expression in cell line KT-1B (RT-PCR)", "format": "cell-based, mouse", "conditions": "cell line KT-1B treated for 6 days; aldosterone 1 μM, hydrocortisone 0.2 μM; compared with progesterone 0.1 μM", "method": "While being cultured in the presence of hydrocortisone, cell line KT-1B constantly expresses the amiloride-sensitive sodium channel alpha subunit (αENaC), which might be involved in salt taste response.\nTherefore, cell line KT-1B was treated for 6 days with the hormone progesterone (0.1 μM), aldosterone (1 μM) or hydrocortisone (0.2 μM), and expression of the salt sensing channel αENaC was investigated.\nRNA was extracted with Trizol solution from the treated cell line KT-1B, and cDNA was synthesized on a scale of 40 μl using the resulting 2 μg of RNA and a Super Script First Strand cDNA synthesis kit. Using 1 μl of this cDNA as the template and primers specific to salt taste channel αENaC (0.2 μM each, Seq. Nos. 13 and 14), 2.5 units of Takara Taq were added and a PCR reaction consisting of denaturation at 95° C. for 5 minutes followed by 35 cycles of 1 minute at 95° C., 1 minute at 58° C. and 2 minutes at 72° C. was performed in a 25 μl system. 8 μl of the PCR reaction liquid was electrophoresed on a 1.5% agarose gel, stained with ethidium bromide and photographed."}, "[1]": {"biological_target": "sweet taste receptors T1r2 and T1r3 (Mus musculus, UniProt Q925D8+Q925I4)", "sequence (Q925I4 20-843)": "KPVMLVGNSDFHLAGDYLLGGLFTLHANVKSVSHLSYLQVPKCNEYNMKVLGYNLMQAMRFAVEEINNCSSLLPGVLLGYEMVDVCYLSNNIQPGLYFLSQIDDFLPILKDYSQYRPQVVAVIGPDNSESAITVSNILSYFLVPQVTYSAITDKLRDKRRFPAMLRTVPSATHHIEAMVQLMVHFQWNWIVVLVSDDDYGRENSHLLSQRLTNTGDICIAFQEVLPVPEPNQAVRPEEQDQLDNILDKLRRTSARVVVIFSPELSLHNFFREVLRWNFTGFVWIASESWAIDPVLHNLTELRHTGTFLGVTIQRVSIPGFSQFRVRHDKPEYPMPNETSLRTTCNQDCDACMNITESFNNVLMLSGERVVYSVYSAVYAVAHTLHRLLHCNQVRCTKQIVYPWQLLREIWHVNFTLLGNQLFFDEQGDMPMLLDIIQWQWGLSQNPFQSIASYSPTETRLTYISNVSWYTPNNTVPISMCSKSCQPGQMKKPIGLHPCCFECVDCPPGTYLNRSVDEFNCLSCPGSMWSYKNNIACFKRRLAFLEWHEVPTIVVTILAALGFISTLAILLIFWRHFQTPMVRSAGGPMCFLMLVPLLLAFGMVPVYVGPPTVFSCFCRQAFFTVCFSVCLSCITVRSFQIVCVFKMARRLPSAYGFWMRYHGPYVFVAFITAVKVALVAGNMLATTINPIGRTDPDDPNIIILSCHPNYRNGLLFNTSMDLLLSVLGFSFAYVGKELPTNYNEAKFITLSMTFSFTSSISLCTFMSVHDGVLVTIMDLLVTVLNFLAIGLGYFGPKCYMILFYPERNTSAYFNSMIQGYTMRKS", "sequence (Q925D8 21-858)": "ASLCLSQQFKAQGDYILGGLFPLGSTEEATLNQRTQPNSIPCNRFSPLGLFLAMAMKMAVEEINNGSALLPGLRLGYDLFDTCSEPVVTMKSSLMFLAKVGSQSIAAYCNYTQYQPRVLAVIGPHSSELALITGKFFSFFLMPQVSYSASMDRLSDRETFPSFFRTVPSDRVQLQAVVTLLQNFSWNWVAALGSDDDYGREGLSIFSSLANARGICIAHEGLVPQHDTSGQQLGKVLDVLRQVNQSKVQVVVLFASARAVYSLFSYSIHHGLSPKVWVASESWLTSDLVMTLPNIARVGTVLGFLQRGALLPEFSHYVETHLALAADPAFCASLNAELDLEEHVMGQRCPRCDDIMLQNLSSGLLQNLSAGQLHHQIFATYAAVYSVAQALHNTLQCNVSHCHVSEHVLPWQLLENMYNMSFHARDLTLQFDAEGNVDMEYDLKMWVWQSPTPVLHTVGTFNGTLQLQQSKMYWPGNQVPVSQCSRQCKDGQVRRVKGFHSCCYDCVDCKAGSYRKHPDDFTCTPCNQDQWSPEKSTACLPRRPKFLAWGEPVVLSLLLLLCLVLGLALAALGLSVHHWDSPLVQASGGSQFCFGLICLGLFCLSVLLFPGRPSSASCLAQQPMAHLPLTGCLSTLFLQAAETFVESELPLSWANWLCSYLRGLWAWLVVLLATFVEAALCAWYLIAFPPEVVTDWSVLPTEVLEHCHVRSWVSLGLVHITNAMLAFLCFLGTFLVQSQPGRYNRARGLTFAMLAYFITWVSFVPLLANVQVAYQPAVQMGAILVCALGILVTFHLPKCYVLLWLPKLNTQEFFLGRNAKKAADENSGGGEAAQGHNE", "conditions": "KT-1C cells; final concentration 5 mM; 0.5 minutes after addition", "quoted_text": "KT-1C cells which had been washed twice in PBS(−) were incubated for 30 minutes at room temperature with 1 ml of imaging buffer (NaHCO3 22 mM, KCl 5 mM, NaH2PO4 1.25 mM, glucose 10 mM, NaCl 124 mM) to which 5 μl of Fura-2-AM (1 mM dissolved in DMSO, Molecular Probe) and 5 μl of Cremophor (Nacalai Tesque) had been added, incorporating Fura-2-AM into the cells. They were then washed twice with imaging buffer to remove any Fura-2-AM that had not been incorporated into the cells.\nNext the dish was filled with 1 ml of imaging buffer to which 1 mM MgCl2 and 2 mM CaCl2 had been added, and the artificial sweetener Acesul fame K (Fluka), which is known to be a ligand for sweet taste receptors T1r2 and T1r3, was added to a final concentration of 5 mM. […] After measurement, changes over time in florescence in the various cells were converted to changes in calcium concentration by the AquaCosmos software, and graphed."}, "[2]": {"biological_target": "salt sensing channel αENaC (Mus musculus, UniProt Q61180)", "sequence (Q61180 whole entry)": "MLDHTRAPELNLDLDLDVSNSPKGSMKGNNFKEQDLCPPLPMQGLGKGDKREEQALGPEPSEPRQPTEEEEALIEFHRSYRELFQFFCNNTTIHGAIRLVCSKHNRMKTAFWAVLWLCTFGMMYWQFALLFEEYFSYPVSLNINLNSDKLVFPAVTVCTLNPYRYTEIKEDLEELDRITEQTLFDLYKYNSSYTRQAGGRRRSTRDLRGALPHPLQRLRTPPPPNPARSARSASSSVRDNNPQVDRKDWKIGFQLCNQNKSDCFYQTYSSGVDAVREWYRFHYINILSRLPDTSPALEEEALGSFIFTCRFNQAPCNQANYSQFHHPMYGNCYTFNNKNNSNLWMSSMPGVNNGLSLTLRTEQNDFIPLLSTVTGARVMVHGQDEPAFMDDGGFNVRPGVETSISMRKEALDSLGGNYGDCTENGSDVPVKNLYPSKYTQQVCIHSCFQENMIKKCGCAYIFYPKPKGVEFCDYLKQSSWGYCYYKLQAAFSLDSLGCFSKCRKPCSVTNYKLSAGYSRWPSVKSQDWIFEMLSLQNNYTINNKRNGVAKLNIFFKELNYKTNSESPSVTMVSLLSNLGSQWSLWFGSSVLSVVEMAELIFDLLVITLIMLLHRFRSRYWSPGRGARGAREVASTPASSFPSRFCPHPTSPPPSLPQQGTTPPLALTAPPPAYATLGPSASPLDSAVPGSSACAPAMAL", "conditions": "KT-1C cells", "method": "Next they were washed twice with Na imaging buffer to remove any CoroNa-Red that had not been incorporated into the cells.\nNext, the dish was filled with 1 mL of imaging buffer to which 1 mM MgCl2 and 2 mM CaCl2 had been added, and NaCl, which is known to be a salt taste channel ligand, was then added thereto to a final concentration of 50 mM. It is known that when cells with salt taste response ability (in other words, cells in which the salt sensing channel αENaC is functionally expressed) respond to NaCl (salty substance), sodium flows into the cytoplasm, and the concentration of sodium in the cytoplasm rises. Therefore, the fluorescence (580 nm) produced by CoroNa-Red when sodium flowed into the cytoplasm due to addition of NaCl was measured over time using an inverted fluorescence microscope (Leica, DMRIB) equipped with a CCD camera (Hamamatsu Photonics) controlled by AquaCosmos software (Hamamatsu Photonics). After measurement, changes over time inflorescence in the various cells were converted to changes in sodium concentration using the AquaCosmos software, and graphed."}}}
{"smiles": "C[C@]12CCC(=O)C=C1CC[C@@H]1[C@@H]2[C@@H](O)C[C@]2(C=O)[C@@H](C(=O)CO)CC[C@@H]12", "note": "[aldosterone]", "values": [{"measurement": "amount of expression of the salt taste channel αENaC (mRNA, RT-PCR)", "setting": "salt taste channel αENaC", "value": "greater"}]}
{"smiles": "CC1=CC(=O)[N-]S(=O)(=O)O1.[K+]", "note": "[Acesulfame K]", "values": [{"measurement": "intercellular calcium concentration (Fura-2 fluorescence) after addition", "setting": "[1]", "value": "rise in intercellular calcium concentration"}]}
{"smiles": "C[C@]12CCC(=O)C=C1CC[C@@H]1[C@@H]2[C@@H](O)C[C@@]2(C)[C@H]1CC[C@]2(O)C(=O)CO", "note": "[hydrocortisone]", "values": [{"measurement": "amount of expression of the salt taste channel αENaC (mRNA, RT-PCR)", "setting": "salt taste channel αENaC", "value": "greater"}]}
{"smiles": "[Cl-].[Na+]", "note": "[NaCl]", "values": [{"measurement": "dependence of intercellular sodium concentration on added concentration", "setting": "[2]; 50 mM then 150 mM added", "value": "affected by the concentration of added NaCl"}, {"measurement": "intercellular sodium concentration (CoroNa-Red fluorescence) after addition", "setting": "[2]; final concentration 50 mM, 0.5 minutes after addition", "value": "rise in intercellular sodium concentration"}]}
